Source: US10351547B2, “Somatostatin modulators and uses thereof” (priority 2016, dated 2019)
Where two headings read alike, the source gives them in different places.

Biological target: human SSTR2 (Homo sapiens (Human), UniProt P30874)
Assay: Human SSTR2 intracellular cAMP functional assay for agonists (HTRF)
Type: cell-based
Outline: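 Cells bearing human SSTR2 exposed to compound for 20 minutes at 37 °C; after lysis, cAMP measured by time-resolved fluorescence (HTRF) and converted via a standard curve. EC50 calculated from cAMP versus compound concentration.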

[1] = CHO-K1 cells stably expressing human SSTR2, NKH477-stimulated cAMP, read-out: EC50 (inhibition of cAMP activities via human SST2R)

human SSTR2, sequence (P30874 whole entry): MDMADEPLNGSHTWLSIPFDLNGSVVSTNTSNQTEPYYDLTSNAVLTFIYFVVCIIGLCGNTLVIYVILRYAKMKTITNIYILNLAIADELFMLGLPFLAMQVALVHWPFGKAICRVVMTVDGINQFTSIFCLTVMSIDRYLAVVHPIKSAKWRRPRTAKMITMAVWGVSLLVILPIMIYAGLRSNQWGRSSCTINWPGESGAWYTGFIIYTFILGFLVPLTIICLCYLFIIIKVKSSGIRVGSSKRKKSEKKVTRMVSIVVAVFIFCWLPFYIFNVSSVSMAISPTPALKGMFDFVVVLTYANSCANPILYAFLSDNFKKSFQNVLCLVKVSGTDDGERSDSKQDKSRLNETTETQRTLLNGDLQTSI

Structure (SMILES) | EC50 [1] [nM] | EC50 [nM]
CON(C)C(=O)Nc1c(F)cccc1-c1ccc2ncc(-c3cc(C)cc(F)c3)c(N3CCC(N)CC3)c2c1 [2-210, 1-{2-[4-(4-aminopiperidin-1-yl)-3-(3-fluoro-5-methylphenyl)quinolin-6-yl]-6-fluorophenyl}-3-methoxy-3-methylurea] | < 10 | 
Cc1cc(F)cc(-c2cnc3ccc(-c4cn(C)nc4N)cc3c2N2CCC(N)CC2)c1 [2-211, 1-[6-(3-amino-1-methyl-1H-pyrazol-4-yl)-3-(3-fluoro-5-methylphenyl)quinolin-4-yl]piperidin-4-amine] | < 10 | 
CONC(=O)Nc1nn(C)cc1-c1ccc2ncc(-c3cc(C)cc(F)c3)c(N3CCC(N)CC3)c2c1 [2-212, 1-{4-[4-(4-aminopiperidin-1-yl)-3-(3-fluoro-5-methylphenyl)quinolin-6-yl]-1-methyl-1H-pyrazol-3-yl}-3-methoxyurea] | < 10 | 
CON=Cc1cc(-c2ccc3ncc(-c4cc(C)cc(F)c4)c(N4CCC(N)CC4)c3c2)ccc1O [2-213, 4-[4-(4-aminopiperidin-1-yl)-3-(3-fluoro-5-methylphenyl)quinolin-6-yl]-2-[(methoxyimino)methyl]phenol] |  | 10 to 100
COC(=O)Nc1nn(C)cc1-c1ccc2ncc(-c3cc(C)cc(F)c3)c(N3CCC(N)CC3)c2c1 [2-214, methyl N-{4-[4-(4-aminopiperidin-1-yl)-3-(3-fluoro-5-methylphenyl)quinolin-6-yl]-1-methyl-1H-pyrazol-3-yl}carbamate] | < 10 | 
CONC(=O)Nc1nccc(C)c1-c1ccc2ncc(-c3cc(C)cc(F)c3)c(N3CCC(N)CC3)c2c1 [2-215, 1-{3-[4-(4-aminopiperidin-1-yl)-3-(3-fluoro-5-methylphenyl)quinolin-6-yl]-4-methylpyridin-2-yl}-3-methoxyurea] |  | 10 to 100
Cc1cc(F)cc(-c2cnc3ccc(-c4cc(F)cc(F)c4NC(=O)NOC(C)C)cc3c2N2CCC(N)CC2)c1 [2-216, 1-{2-[4-(4-aminopiperidin-1-yl)-3-(3-fluoro-5-methylphenyl)quinolin-6-yl]-4,6-difluorophenyl}-3-(propan-2-yloxy)urea] | < 10 | 
CONC(=O)Nc1ccc(C#N)cc1-c1ccc2ncc(-c3cc(C)cc(F)c3)c(N3CCC(N)CC3)c2c1 [2-222] | < 10 | 
CONC(=O)Nc1cc(F)cc(-c2ccc3ncc(-c4cc(C)cc(F)c4)c(N4CCC(N)CC4)c3c2)c1 [2-223, 1-{3-[4-(4-aminopiperidin-1-yl)-3-(3-fluoro-5-methylphenyl)quinolin-6-yl]-5-fluorophenyl}-3-methoxyurea] | < 10 | 
CONC(=O)Nc1ncccc1-c1ccc2ncc(-c3cc(C)cc(F)c3)c(N3CCC(N)CC3)c2c1 [2-226, 1-{3-[4-(4-aminopiperidin-1-yl)-3-(3-fluoro-5-methylphenyl)quinolin-6-yl]pyridin-2-yl}-3-methoxyurea] | < 10 | 
CCONC(=O)Nc1c(F)cc(F)cc1-c1ccc2ncc(-c3cc(C)cc(F)c3)c(N3CCC(N)CC3)c2c1 [2-228, 1-{2-[4-(4-aminopiperidin-1-yl)-3-(3-fluoro-5-methylphenyl)quinolin-6-yl]-4,6-difluorophenyl}-3-ethoxyurea] | < 10 | 
COCCNc1nn(C)cc1-c1ccc2ncc(-c3cc(C)cc(F)c3)c(N3CCC(N)CC3)c2c1 [2-229, 1-[3-(3-fluoro-5-methylphenyl)-6-{3-[(2-methoxyethyl)amino]-1-methyl-1H-pyrazol-4-yl}quinolin-4-yl]piperidin-4-amine] | < 10 | 
COCC(=O)Nc1c(F)cc(F)cc1-c1ccc2ncc(-c3cc(C)cc(F)c3)c(N3CCC(N)CC3)c2c1 [2-230, N-{2-[4-(4-aminopiperidin-1-yl)-3-(3-fluoro-5-methylphenyl)quinolin-6-yl]-4,6-difluorophenyl}-2-methoxyacetamide] | < 10 | 
N#CCOc1c(C#N)cccc1-c1ccc2ncc(-c3cc(F)cc(F)c3)c(N3CCC(N)CC3)c2c1 [2-231, 3-[4-(4-aminopiperidin-1-yl)-3-(3,5-difluorophenyl)quinolin-6-yl]-2-(cyanomethoxy)benzonitrile] | < 10 | 
Cc1cc(F)cc(-c2cnc3ccc(-c4cc(F)cc(F)c4NC(=O)NOCC(F)(F)F)cc3c2N2CCC(N)CC2)c1 [2-233, 1-{2-[4-(4-aminopiperidin-1-yl)-3-(3-fluoro-5-methylphenyl)quinolin-6-yl]-4,6-difluorophenyl}-3-(2,2,2-trifluoroethoxy)urea] | < 10 | 
COCCNc1ncc(F)cc1-c1ccc2ncc(-c3cc(C)cc(F)c3)c(N3CCC(N)CC3)c2c1 [2-234, 3-[4-(4-aminopiperidin-1-yl)-3-(3-fluoro-5-methylphenyl)quinolin-6-yl]-5-fluoro-N-(2-methoxyethyl)pyridin-2-amine] | < 10 | 
CONC(=O)Nc1c(F)cc(C#N)cc1-c1ccc2ncc(-c3cc(C)cc(F)c3)c(N3CCC(N)CC3)c2c1 [2-237, 1-{2-[4-(4-aminopiperidin-1-yl)-3-(3-fluoro-5-methylphenyl)quinolin-6-yl]-4-cyano-6-fluorophenyl}-3-methoxyurea] | < 10 | 

Structure (SMILES) | EC50 [1] [nM] | EC50 [nM]
N#Cc1ccc(NC(=O)NOCC(F)(F)F)c(-c2ccc3ncc(-c4cc(F)cc(F)c4)c(N4CCC(N)CC4)c3c2)c1 [2-238, 1-{2-[4-(4-aminopiperidin-1-yl)-3-(3,5-difluorophenyl)quinolin-6-yl]-4-cyanophenyl}-3-(2,2,2-trifluoroethoxy)urea] | < 10 | 
CONC(=O)Nc1nc(C)ccc1-c1ccc2ncc(-c3cc(C)cc(F)c3)c(N3CCC(N)CC3)c2c1 [2-239, 1-{3-[4-(4-aminopiperidin-1-yl)-3-(3-fluoro-5-methylphenyl)quinolin-6-yl]-6-methylpyridin-2-yl}-3-methoxyurea] |  | 10 to 100
CONC(=O)Nc1ccc(-c2ccc3ncc(-c4cc(C)cc(F)c4)c(N4CCC(N)CC4)c3c2)cc1 [2-240, 1-{4-[4-(4-aminopiperidin-1-yl)-3-(3-fluoro-5-methylphenyl)quinolin-6-yl]phenyl}-3-methoxyurea] |  | 10 to 100
NC1CCN(c2c(-c3cc(F)cc(F)c3)cnc3ccc(-c4c(O)c(Br)cc(F)c4F)cc23)CC1 [2-241, 2-[4-(4-aminopiperidin-1-yl)-3-(3,5-difluorophenyl)quinolin-6-yl]-6-bromo-3,4-difluorophenol] | < 10 | 
COCCNc1ncc(C#N)cc1-c1ccc2ncc(-c3cc(C)cc(F)c3)c(N3CCC(N)CC3)c2c1 [2-242, 5-[4-(4-aminopiperidin-1-yl)-3-(3-fluoro-5-methylphenyl)quinolin-6-yl]-6-[(2-methoxyethyl)amino]pyridine-3-carbonitrile] | < 10 | 
Oc1ncccc1-c1ccc2ncc(-c3cc(F)cc(F)c3)c(N3CC[C@H]4NCCO[C@@H]4C3)c2c1 [2-248, 3-{4-[trans-octahydro-1H-pyrido[3,4-b]morpholin-6-yl]-3-(3,5-difluorophenyl)quinolin-6-yl}pyridin-2-ol] | < 10 | 
Cc1ccnc(-c2ccc3ncc(-c4cc(F)cc(F)c4)c(N4CCC(N)CC4)c3c2)c1N [2-250, 2-[4-(4-aminopiperidin-1-yl)-3-(3,5-difluorophenyl)quinolin-6-yl]-4-methylpyridin-3-amine] | < 10 | 
N#Cc1cncc(-c2ccc3ncc(-c4cc(F)cc(F)c4)c(N4CC[C@H]5NCCO[C@@H]5C4)c3c2)c1O [2-254, 5-{4-[trans-octahydro-1H-pyrido[3,4-b]morpholin-6-yl]-3-(3,5-difluorophenyl)quinolin-6-yl}-4-hydroxypyridine-3-carbonitrile] | 10 to 100 | 
Cc1ccnc(-c2ccc3ncc(-c4cc(F)cc(F)c4)c(N4CC[C@H]5NCCO[C@@H]5C4)c3c2)c1O [2-258, 2-{4-[trans-octahydro-1H-pyrido[3,4-b]morpholin-6-yl]-3-(3,5-difluorophenyl)quinolin-6-yl}-4-methylpyridin-3-ol] | < 10 | 
Cc1cc(F)cc(-c2cnc3ccc(-c4nccc(C#N)c4N)cc3c2N2CC(C3COCCN3)C2)c1 (stereo not shown) [2-282, 3-amino-2-[3-(3-fluoro-5-methylphenyl)-4-[3-(morpholin-3-yl)azetidin-1-yl]quinolin-6-yl]pyridine-4-carbonitrile] | < 10 | 
Cc1cc(F)cc(-c2cnc3ccc(-c4cc(F)cc(C(N)=O)c4)nc3c2N2CCC(N)CC2)c1 [3-1, 3-[8-(4-aminopiperidin-1-yl)-7-(3-fluoro-5-methylphenyl)-1,5-naphthyridin-2-yl]-5-fluorobenzamide] | < 10 | 
Cc1cc(F)cc(-c2cnc3ccc(-c4cc(F)cc5[nH]c(=O)[nH]c45)nc3c2N2CCC(N)CC2)c1 [3-3, 4-[8-(4-aminopiperidin-1-yl)-7-(3-fluoro-5-methylphenyl)-1,5-naphthyridin-2-yl]-6-fluoro-2,3-dihydro-1H-1,3-benzodiazol-2-one] | < 10 | 
Cc1cc(F)cc(-c2cnc3ccc(-c4ccc5[nH]c(=O)[nH]c5c4)nc3c2N2CCC(N)CC2)c1 [3-4, 5-[8-(4-aminopiperidin-1-yl)-7-(3-fluoro-5-methylphenyl)-1,5-naphthyridin-2-yl]-2,3-dihydro-1H-1,3-benzodiazol-2-one] | < 10 | 
Cc1cc(F)cc(-c2cnc3ccc(-c4cc(F)c5[nH]c(=O)[nH]c5c4)nc3c2N2CCC(N)CC2)c1 [3-5, 6-[8-(4-aminopiperidin-1-yl)-7-(3-fluoro-5-methylphenyl)-1,5-naphthyridin-2-yl]-4-fluoro-2,3-dihydro-1H-1,3-benzodiazol-2-one] | < 10 | 
NC1CCN(c2c(-c3cc(F)cc(F)c3)cnc3ccc(-c4cc(F)c5[nH]c(=O)[nH]c5c4)nc23)CC1 [3-9, 6-[8-(4-aminopiperidin-1-yl)-7-(3,5-difluorophenyl)-1,5-naphthyridin-2-yl]-4-fluoro-2,3-dihydro-1H-1,3-benzodiazol-2-one] | < 10 | 
N#Cc1cccc(-c2cnc3ncc(-c4cc(F)cc(F)c4)c(N4CCC(N)CC4)c3c2)c1O [4-1, 3-[5-(4-aminopiperidin-1-yl)-6-(3,5-difluorophenyl)-1,8-naphthyridin-3-yl]-2-hydroxybenzonitrile] |  | 10 to 100
Cc1cc(F)cc(-c2cnc3ncc(-c4cccc(C#N)c4O)cc3c2N2CCC(N)CC2)c1 [4-2, 3-[5-(4-aminopiperidin-1-yl)-6-(3-fluoro-5-methylphenyl)-1,8-naphthyridin-3-yl]-2-hydroxybenzonitrile] | < 10 | 
